In US20230372427A1, “THE COMPOSITIONS OF PLANT INGREDIENTS AND HERBS AGAINST CORONAVIRUS” (priority 2022, published 2023):

System: wild-type SARS-CoV-2 pseudotyped lentivirus (WT-GFP-SARS-CoV-2-pseudotyped lentivirus)
Assay: microbe, parasite or virus in culture
Assay type: cell-based
Settings: HEK-293T, 72 h, read-out: inhibitory effect (viral entry), positive control

`CCN(CC)CCCC(C)Nc1ccnc2cc(Cl)ccc12` (stereo not shown) [chloroquine, Chloroquine] was tested. Which inhibition at 0.5 µg/mL did it give?
The inhibition at 0.5 µg/mL was ~70%.
